Where two headings read alike, the source gives them in different places.
What was measured:
NAMPT = biological target: T1, NAMPT (Homo sapiens, UniProt P43490); assay: Biochemical inhibition assay: NAMPT enzymatic reaction, NMN quantified by mass spectrometry; settings: read-out: Biochem IC50
T1 construct: His tag; host or cells: E. coli
In short: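 Inhibition of E. coli-expressed His-tagged human NAMPT, measured as NMN formation by mass spectrometry after a 30 min room-temperature reaction containing 1 μM NAM, 100 μM PRPP and 2.5 mM ATP.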

A2780 cells = assay: In-vitro cell proliferation assay (SRB), A2780 cells; format: cell-based; settings: A2780 cells, 72 hours, read-out: A2780 IC50
In short: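 Growth inhibition was derived from background-corrected SRB absorbance (570 nm), measured on cells fixed in 6% TCA after three days of compound treatment under 5% CO2 at 37° C.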

[1] = Homo sapiens, A2780, 72 h, SRB assay

T1 sequence (P43490 whole entry): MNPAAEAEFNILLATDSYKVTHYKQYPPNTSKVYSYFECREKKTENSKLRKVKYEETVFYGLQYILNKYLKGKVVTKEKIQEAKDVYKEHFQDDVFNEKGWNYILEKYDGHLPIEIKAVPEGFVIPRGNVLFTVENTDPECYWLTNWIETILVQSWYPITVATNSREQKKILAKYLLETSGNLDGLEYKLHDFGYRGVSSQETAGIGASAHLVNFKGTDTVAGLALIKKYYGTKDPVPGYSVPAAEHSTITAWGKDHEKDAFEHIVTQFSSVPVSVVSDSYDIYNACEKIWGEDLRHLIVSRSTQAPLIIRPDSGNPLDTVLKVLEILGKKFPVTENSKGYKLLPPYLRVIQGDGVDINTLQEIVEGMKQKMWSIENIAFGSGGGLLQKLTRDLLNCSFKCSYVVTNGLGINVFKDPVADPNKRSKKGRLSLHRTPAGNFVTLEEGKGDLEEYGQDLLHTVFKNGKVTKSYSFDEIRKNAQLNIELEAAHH

| Structure (SMILES) | IC50 (NAMPT; NAMPT enzymatic assay) | IC50 (A2780 cells; Homo sapiens, A2780, 72 h, SRB) | IC50 (NAMPT; NAMPT enzymatic reaction) | IC50 (A2780 cells; [1]) | IC50 (A2780 cells; SRB) |
| --- | --- | --- | --- | --- | --- |
| O=C(NCc1ccc(S(=O)(=O)c2cc(C(F)(F)F)ccn2)cc1)c1cc2ccncc2s1 [N-({4-[4-(trifluoromethyl)pyridine-2-sulfonyl]phenyl}methyl)thieno[2,3-c]pyridine-2-carboxamide] | 3.6 nM | 3 nM |  |  |  |
| O=C(NCc1ccc(S(=O)(=O)c2cccc3cccnc23)cc1)c1cc2ccncc2s1 [N-{[4-(quinoline-8-sulfonyl)phenyl]methyl}thieno[2,3-c]pyridine-2-carboxamide] |  |  | 6 nM | 2.5 nM |  |
| O=C(NCc1ccc(S(=O)(=O)c2ccc(C(F)(F)F)cc2C(F)(F)F)cc1)c1cnc2nccn2c1 | 18.8 nM | 96.4 nM |  |  |  |
| COc1cc(C)cc(S(=O)(=O)c2ccc(CNC(=O)c3cc4ccncc4s3)cc2)c1 |  | 0.8 nM | 2.4 nM |  |  |
| Cc1nc(S(=O)(=O)c2ccc(CNC(=O)c3cnc4nccn4c3)cc2)cs1 [N-{[4-(2-methyl-1,3-thiazole-4-sulfonyl)phenyl]methyl}imidazo[1,2-a]pyrimidine-6-carboxamide] | 28.6 nM | 1000 to 10000 nM |  |  |  |
| Cn1ncc2c(S(=O)(=O)c3ccc(CNC(=O)c4cc5ccncc5s4)cc3)cccc21 [N-{[4-(1-methyl-1H-indazole-4-sulfonyl)phenyl]methyl}thieno[2,3-c]pyridine-2-carboxamide] | 1.1 nM | 0.8 nM |  |  |  |
| Cn1cnc2ccc(S(=O)(=O)c3ccc(CNC(=O)c4cnc5nccn5c4)cc3)cc21 [N-{[4-(1-methyl-1H-1,3-benzodiazole-6-sulfonyl)phenyl]methyl}imidazo[1,2-a]pyrimidine-6-carboxamide] | 4 nM | 33.8 nM |  |  |  |
| CC(C)Oc1cccc(S(=O)(=O)c2ccc(CNC(=O)c3cc4ccncc4s3)cc2)c1F | 4.7 nM | 6.6 nM |  |  |  |
| O=C(NCc1ccc(S(=O)(=O)c2cccc(OCC(F)(F)F)c2)cc1)c1cnc2nccn2c1 | 5.5 nM | 11.4 nM |  |  |  |
| CSc1ccc(S(=O)(=O)c2ccc(CNC(=O)c3ccc4nccn4c3)cc2)cc1F | 5.6 nM | 2.7 nM |  |  |  |
| Cc1ccc(F)c(S(=O)(=O)c2ccc(CNC(=O)c3cnc4nccn4c3)cc2)c1 |  | 27.5 nM | 6.8 nM |  |  |
| COc1ccc(C(C)=O)cc1S(=O)(=O)c1ccc(CNC(=O)c2cnc3[nH]ncc3c2)cc1 |  | 27.5 nM | 27.7 nM |  |  |
| Cc1ccc(S(=O)(=O)c2ccc(CNC(=O)c3cc4ccncc4o3)cc2)cc1F |  | 3.3 nM | 14 nM |  |  |
| O=C(NCc1ccc(S(=O)(=O)c2cnc3ccccc3c2)cc1)c1cc2ccncc2s1 [N-{[4-(quinoline-3-sulfonyl)phenyl]methyl}thieno[2,3-c]pyridine-2-carboxamide] | 4.4 nM | 0.9 nM | 3 nM | 0.8 nM |  |
| COCc1cccc(S(=O)(=O)c2ccc(CNC(=O)c3cnc4[nH]ncc4c3)cc2)c1 [N-[(4-{[3-(methoxymethyl)benzene]sulfonyl}phenyl)methyl]-1H-pyrazolo[3,4-b]pyridine-5-carboxamide] | 38.7 nM |  |  |  | 39.4 nM |
| O=C(NCc1ccc(S(=O)(=O)c2ccc(C3CCCCC3)cc2)cc1)c1cnc2nccn2c1 |  | 7.7 nM | 5.8 nM |  |  |
| Cc1cccc(S(=O)(=O)c2ccc(CNC(=O)c3cc4ccncc4o3)cc2)n1 [N-{[4-(6-methylpyridine-2-sulfonyl)phenyl]methyl}furo[2,3-c]pyridine-2-carboxamide] | 12.8 nM | 12.5 nM |  |  |  |
| Cc1ccc(S(=O)(=O)c2ccc(CNC(=O)c3cnc4nccn4c3)cc2)cc1 |  | 19.4 nM | 4.3 nM |  |  |
| Cc1cncc(S(=O)(=O)c2ccc(CNC(=O)c3cc4ccncc4o3)cc2)n1 [N-{[4-(6-methylpyrazine-2-sulfonyl)phenyl]methyl}furo[2,3-c]pyridine-2-carboxamide] | 20.9 nM | 9.7 nM |  |  |  |
| Cc1cc(Cl)ccc1S(=O)(=O)c1ccc(CNC(=O)c2cc3cnccc3[nH]2)cc1 [N-({4-[(4-chloro-2-methylbenzene)sulfonyl]phenyl}methyl)-1H-pyrrolo[3,2-c]pyridine-2-carboxamide] |  |  | 27 nM | 25 nM |  |

— US12336981B2, “Compounds and compositions for the inhibition of NAMPT” (Valo Health, Inc., priority 2010, dated 2025)
